According to publication PMC8300687, “A Fine-Tuned Lipophilicity/Hydrophilicity Ratio Governs Antibacterial Potency and Selectivity of Bifurcated Halogen Bond-Forming NBTIs” (Antibiotics, 2021):
In brackets after ≈: the same amount, converted by molar mass. Read-outs that look alike come from different tables or passages of the source.

Experiments:
[1] = target: T1, S. aureus Topo IV (Staphylococcus aureus, UniProt Q2FYS4); assay: biochemical; settings: for LE Topo IV S. aureus: LE = (1.37/HA) × pIC50; for IC50: mean of two to four measurements, read-out: Topoisomerase IV IC50 S. aureus
T1 construct: purchased Inspiralis (Norwich, UK)
T1 sequence (Q2FYS5 whole entry): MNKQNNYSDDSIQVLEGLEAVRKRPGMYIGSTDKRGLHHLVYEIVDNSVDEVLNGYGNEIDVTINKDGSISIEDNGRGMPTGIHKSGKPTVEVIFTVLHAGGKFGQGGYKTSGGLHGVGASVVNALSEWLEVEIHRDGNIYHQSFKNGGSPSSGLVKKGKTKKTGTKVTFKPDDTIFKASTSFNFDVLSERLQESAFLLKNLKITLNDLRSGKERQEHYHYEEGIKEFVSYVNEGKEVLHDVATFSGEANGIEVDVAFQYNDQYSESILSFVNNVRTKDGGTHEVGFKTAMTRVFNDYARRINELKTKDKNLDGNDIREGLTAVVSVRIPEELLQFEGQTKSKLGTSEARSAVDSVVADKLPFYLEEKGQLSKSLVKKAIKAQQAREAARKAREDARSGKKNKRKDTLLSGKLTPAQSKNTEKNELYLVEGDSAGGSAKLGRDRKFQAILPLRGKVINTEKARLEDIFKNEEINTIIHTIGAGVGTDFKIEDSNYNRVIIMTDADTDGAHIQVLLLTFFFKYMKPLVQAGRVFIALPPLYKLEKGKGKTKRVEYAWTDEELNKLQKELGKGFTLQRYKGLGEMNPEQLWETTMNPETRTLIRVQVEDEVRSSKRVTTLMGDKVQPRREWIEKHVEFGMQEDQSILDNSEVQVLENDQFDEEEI
T1 sequence (Q2FYS4 whole entry): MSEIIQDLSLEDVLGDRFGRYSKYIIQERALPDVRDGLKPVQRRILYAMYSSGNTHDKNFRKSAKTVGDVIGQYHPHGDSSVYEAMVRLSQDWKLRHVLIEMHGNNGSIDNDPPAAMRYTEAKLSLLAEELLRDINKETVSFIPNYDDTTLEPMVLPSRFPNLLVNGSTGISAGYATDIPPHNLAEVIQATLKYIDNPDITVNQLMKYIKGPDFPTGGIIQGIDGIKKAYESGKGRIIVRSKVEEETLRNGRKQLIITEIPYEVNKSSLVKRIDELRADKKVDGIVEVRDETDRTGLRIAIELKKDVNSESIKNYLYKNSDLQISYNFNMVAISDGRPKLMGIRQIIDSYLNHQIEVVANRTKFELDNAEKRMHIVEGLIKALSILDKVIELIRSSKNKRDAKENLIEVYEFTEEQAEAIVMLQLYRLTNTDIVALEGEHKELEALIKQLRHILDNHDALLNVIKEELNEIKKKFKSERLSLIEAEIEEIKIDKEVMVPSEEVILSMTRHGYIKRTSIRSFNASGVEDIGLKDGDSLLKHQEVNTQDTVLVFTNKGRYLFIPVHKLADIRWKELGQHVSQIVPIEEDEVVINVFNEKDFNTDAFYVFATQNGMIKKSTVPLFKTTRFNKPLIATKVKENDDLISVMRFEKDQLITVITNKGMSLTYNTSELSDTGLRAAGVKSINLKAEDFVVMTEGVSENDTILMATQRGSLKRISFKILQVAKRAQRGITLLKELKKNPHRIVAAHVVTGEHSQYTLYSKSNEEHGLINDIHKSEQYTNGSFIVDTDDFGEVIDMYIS
Method: A Topo IV Relaxation High Throughput Plate assay kit, purchased from Inspiralis (Norwich. UK) was used to determine IC50 values of compounds on S. aureus and E. coli. […] Biotinylated oligonucleotide in wash buffer was immobilized onto the wells, and the excess oligonucleotide was washed off with wash buffer and ultrapure water. 1.5 U of S. aureus or E. coli […] enzyme was incubated together with 0.75 μg of supercoiled pNO1 plasmid as a substrate in the presence of 3 μL inhibitor solution in 10% DMSO and 0.008% Tween 20 at 37 °C for 30 min in a final reaction volume of 30 μL in dilution buffer (50 mM Tris-HCl (pH 7.5), 1 mM DTT, 1 mM EDTA, 40% (w/v) glycerol for S. aureus and 40 mM HEPES, KOH (pH 7.6), 100 mM potassium glutamate, 1 mM DTT, 1 mM EDTA, and 40% (v/v) glycerol for E. coli). The reactions were stopped by adding the TF buffer (50 mM NaOAc (pH 4.7), 50 mM NaCl, and 50 mM MgCl2) to allow the triplex formation (biotin-oligonucleotide-plasmid) for additional 30 min. Afterward, the unbound plasmid was washed off using TF buffer, and the solution of Promega Diamond dye in T10 buffer (10 mM Tris-HCl (pH 8.0), 1 mM EDTA) was added. […] IC50 value represents the mean of two to four independent measurements.

[2] = tested on: MRSA; assay: MIC broth microdilution, MRSA; format: cell-based, methicillin-resistant S. aureus; settings: Staphylococcus aureus, read-out: MIC MRSA
Method: (§1) Antimicrobial testing was carried out by the broth microdilution method in 96-well plate format following the Clinical and Laboratory Standards Institute (CLSI) guidelines and European Committee on Antimicrobial Susceptibility Testing (EUCAST) recommendations. Bacterial suspension of specific bacterial strain equivalent to 0.5 McFarland turbidity standard was diluted with cation-adjusted Mueller Hinton broth with TES (Thermo Fisher Diagnostic, Landsmeer, The Netherlands), to obtain a final inoculum of 10^5 CFU/mL. Compounds dissolved in DMSO and inoculum were mixed together and incubated for 18–20 h at 35 °C. Suspensions of Mycobacterium sp. were prepared into a tube of Middelbrook 7H9 broth supplemented with 5% OADC (Thermo Scientific, Trek Diagnostic Systems, West Sussex, UK) and incubated for at least 10 days. After incubation the minimal inhibitory concentration (MIC) values were determined by visual inspection as the lowest dilution of compounds showing no turbidity. Tetracycline was used as a positive control on every assay plate.

[3] = tested on: MRSA (QA-11.7); assay: MIC broth microdilution, MRSA QA-11.7; format: cell-based, methicillin-resistant S. aureus; settings: Staphylococcus aureus, 20 h, read-out: MIC MRSA (QA-11.7)
Method: as §1

[4] = tested on: MRSA (QA-11.6); assay: MIC broth microdilution, MRSA QA-11.6; format: cell-based, methicillin-resistant S. aureus; settings: Staphylococcus aureus, resistant to cefoxitin, gentamicin, sulfamethoxazole, tetracycline, read-out: MIC MRSA (QA-11.6)
Method: as §1

[5] = tested on: E. faecalis DRK 057 (ATCC 29212); assay: MIC broth microdilution, E. faecalis; format: cell-based; settings: Enterococcus faecalis, ATCC29212; read-out: MIC E. faecalis DRK 057 (ATCC 29212)
Method: as §1

[6] = tested on: S. agalactiae RDK 047 (QA-990/02); assay: MIC broth microdilution, S. agalactiae; format: cell-based; settings: Streptococcus agalactiae; read-out: MIC S. agalactiae RDK 047 (QA-990/02)
Method: as §1

[7] = tested on: E. coli (ATCC 25922); assay: MIC broth microdilution, E. coli ATCC 25922; format: cell-based; settings: Escherichia coli, ATCC25922
How it was run: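 MIC taken by eye as the lowest compound dilution with no turbidity. Inoculum 10^5 CFU/mL (final) in cation-adjusted MH broth with TES; 18–20 h, 35 °C. Mycobacteria were grown in Middelbrook 7H9 with 5% OADC for at least 10 days. Tetracycline control on each plate.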

[8] = tested on: E. coli (QA-11.3); assay: MIC broth microdilution, E. coli QA-11.3; format: cell-based; settings: Escherichia coli, 20 h; read-out: MIC E. coli (QA-11.3)
Method: as §1

[9] = tested on: A. baumannii 8C6 (GES-14); assay: MIC broth microdilution, A. baumannii; format: cell-based; settings: Acinetobacter baumannii; read-out: MIC A. baumannii 8C6 (GES-14)
Method: as §1

[10] = tested on: P. aeruginosa RDK 184 (DSM 939); assay: MIC broth microdilution, P. aeruginosa; format: cell-based; settings: Pseudomonas aeruginosa, DSM939; read-out: MIC P. aeruginosa RDK 184 (DSM 939)
Method: as §1

[11] = tested on: S. alachua RDK 030c (QA-1482/04); assay: MIC broth microdilution, S. alachua; format: cell-based; settings: Salmonella; read-out: MIC S. alachua RDK 030c (QA-1482/04)
Method: as §1

[12] = tested on: C. jejuni RDK 135 (ATCC 33560); assay: MIC broth microdilution, C. jejuni; format: cell-based; settings: Campylobacter jejuni, ATCC33560; read-out: MIC C. jejuni RDK 135 (ATCC 33560)
Method: as §1

[13] = tested on: M. smegmatis; assay: MIC, M. smegmatis; format: cell-based, Mycobacterium smegmatis; settings: Mycolicibacterium smegmatis; read-out: MIC M. smegmatis
Method: as §1

[14] = tested on: M. avium; assay: MIC, M. avium; format: cell-based; settings: Mycobacterium avium; read-out: MIC M. avium
Method: as §1

[15] = tested on: HUVEC; assay: Metabolic activity assessment (cytotoxicity), HUVEC; format: cell-based; settings: Homo sapiens, metabolic activity after 72 h treatment
Method: Cells of the HepG2 line (ATCC® HB-8065™) and HUVEC (ATCC® CRL-1730™) were cultured in Dulbecco’s Modified Eagle Medium (DMEM; Sigma-Aldrich, St. Louis, MO, USA) supplemented with 10% heat-deactivated FBS (Gibco, Grand Island, NE, USA), 2 mM L-glutamine, 100 U/mL penicillin, 100 μg/mL streptomycin (all from Sigma-Aldrich, St. Louis, MO, USA) in a humidified chamber at 37 °C and 5% CO2. The experiments were carried out on passages 7–9 for both cell lines. The tested compounds were dissolved in DMSO and further diluted in culture medium to a desired final concentration. Cells were seeded into 96-well plates at 8 × 10^4 cells/mL (100 μL/well) and incubated for 24 h to attach onto the wells. Cells were treated with 1 μM and 50 μM of each compound of interest or corresponding vehicle as control. […] The metabolic activity was assessed after 72 h treatment using the CellTiter 96 Aqueous One Solution Cell Proliferation Assay (Promega, Madison, WI, USA), in accordance with the manufacturer’s instructions. The absorbance was measured at 492 nm on an automated microplate reader BioTek Synergy HT (BioTek Instruments, Inc., Winooski, VT, USA). Data are presented as the percentage of metabolic activity of control cells stimulated with vehicle or as IC50 value (mean ± SD) from two independent experiments, each conducted in duplicate or triplicate. IC50 values were calculated by a non-linear regression model using Graph Pad Prism 7 software.

[16] = E. coli ATCC 25922, read-out: E. coli MIC (converted)
[17] = read-out: MIC E. coli (ATCC 25922)

Compound	LE Topo IV S. aureus [1]	IC50 [1]	MIC [2]	MIC [3]	MIC [4]	MIC [5]	MIC [6]	MIC [7, 16]	MIC [7, 17]	MIC [8]	MIC [9]	MIC [10]	MIC [11]	MIC [12]	MIC [13]	MIC [14]	IC50 ([15]; 72 h)	IC50 [15]
COc1ccc2nccc(CCN3CCC(NCc4ccc(OC(F)F)c(OC)c4)CC3)c2n1 [Compound 19, N-(4-(Difluoromethoxy)-3-methoxybenzyl)-1-(2-(6-methoxy-1,5-naphthyridin-4-yl)ethyl)piperidin-4-amine]	0.18	29 ± 1.89 µM	2 µg/mL (≈ 4.23 µM)	2 µg/mL (≈ 4.23 µM)	2 µg/mL (≈ 4.23 µM)	16 µg/mL (≈ 33.9 µM)	< 1 µg/mL	67.7 µM	32 µg/mL	4 µg/mL (≈ 8.46 µM)	8 µg/mL (≈ 16.9 µM)	> 128 µg/mL	128 µg/mL (≈ 271 µM)	2 µg/mL (≈ 4.23 µM)	4 µg/mL (≈ 8.46 µM)	128 µg/mL (≈ 271 µM)	19.8 ± 2.58 µM	–
COc1ccc2nccc(CCN3CCC(NCc4ccc(OC(F)F)c(O)c4)CC3)c2n1 [Compound 20, 2-(Difluoromethoxy)-5-((1-(2-(6-methoxy-1,5-naphthyridin-4-yl)ethyl)piperidin-4-ylamino)methyl)phenol]	–	> 100 µM	1 µg/mL (≈ 2.18 µM)	0.5 µg/mL (≈ 1.09 µM)	1 µg/mL (≈ 2.18 µM)	4 µg/mL (≈ 8.72 µM)	2 µg/mL (≈ 4.36 µM)	17.4 µM	8 µg/mL	1 µg/mL (≈ 2.18 µM)	4 µg/mL (≈ 8.72 µM)	> 128 µg/mL	64 µg/mL (≈ 140 µM)	0.015 µg/mL (≈ 0.0327 µM)	0.5 µg/mL (≈ 1.09 µM)	128 µg/mL (≈ 279 µM)	29.8 ± 1.13 µM	–
COc1ccc2nccc(CCN3CCC(NCc4ccc(C(F)(F)F)nc4)CC3)c2n1 [Compound 21, 1-(2-(6-Methoxy-1,5-naphthyridin-4-yl)ethyl)-N-((6-(trifluoromethyl)pyridin-3-yl)methyl)piperidin-4-amine]	0.20	18.5 ± 1.32 µM	0.5 µg/mL (≈ 1.12 µM)	1 µg/mL (≈ 2.24 µM)	0.5 µg/mL (≈ 1.12 µM)	2 µg/mL (≈ 4.49 µM)	4 µg/mL (≈ 8.98 µM)	71.8 µM	32 µg/mL	8 µg/mL (≈ 18 µM)	16 µg/mL (≈ 35.9 µM)	> 128 µg/mL	128 µg/mL (≈ 287 µM)	128 µg/mL (≈ 287 µM)	0.25 µg/mL (≈ 0.561 µM)	4 µg/mL (≈ 8.98 µM)	–	> 50 µM
COc1ccc(CNC2CCN(CCc3ccnc4ccc(OC)nc34)CC2)cn1 [Compound 22, 1-(2-(6-Methoxy-1,5-naphthyridin-4-yl)ethyl)-N-((6-methoxypyridin-3-yl)methyl)piperidin-4-amine]	–	> 100 µM	1 µg/mL (≈ 2.45 µM)	1 µg/mL (≈ 2.45 µM)	2 µg/mL (≈ 4.91 µM)	2 µg/mL (≈ 4.91 µM)	1 µg/mL (≈ 2.45 µM)	38.1 µM	16 µg/mL	4 µg/mL (≈ 9.82 µM)	4 µg/mL (≈ 9.82 µM)	> 128 µg/mL	64 µg/mL (≈ 157 µM)	2 µg/mL (≈ 4.91 µM)	16 µg/mL (≈ 39.3 µM)	> 128 µg/mL	–	> 50 µM
